Measurements reported in publication PMC5218480 (PLoS ONE, 2017).

Test system: MV-4-11 cells
Test: Gene expression microarray analysis (Affymetrix PrimeView) and GSEA
Assay type: cell-based, human
Parameters: RFU PODN (11730768_x_at) / Fold change /veh PODN (11730768_x_at) / RFU LINC00158 (11744669_a_at) / Fold change /veh LINC00158 (11744669_a_at) / RFU DUSP10 (11751237_a_at) / Fold change /veh DUSP10 (11751237_a_at) / RFU ID3 (11757404_x_at) / Fold change /veh ID3 (11757404_x_at) / RFU PLEKHG5 (11737974_s_at) / Fold change /veh PLEKHG5 (11737974_s_at) / RFU LRRC4B (11730491_at) / Fold change /veh LRRC4B (11730491_at) / RFU GIMAP4 (11747438_a_at) / Fold change /veh GIMAP4 (11747438_a_at) / RFU KRT8 (11758183_x_at) / Fold change /veh KRT8 (11758183_x_at) / RFU CNN1 (11734310_a_at) / Fold change /veh CNN1 (11734310_a_at) / RFU VPS37D (11726825_at) / Fold change /veh VPS37D (11726825_at) / RFU C10orf10 (11716522_x_at) / Fold change /veh C10orf10 (11716522_x_at) / RFU KIR2DL2 /// KIR2DL4 /// KIR2DL5A /// KIR2DL5B /// KIR2DS1 /// KIR2DS2 /// KIR2DS3 /// KIR2DS4 /// KIR3DL3 /// KIR3DL3 /// KIR3DS1 (11738374_at) / Fold change /veh KIR2DL2 /// KIR2DL4 /// KIR2DL5A /// KIR2DL5B /// KIR2DS1 /// KIR2DS2 /// KIR2DS3 /// KIR2DS4 /// KIR3DL3 /// KIR3DL3 /// KIR3DS1 (11738374_at) / RFU C1QL1 (11718748_at) / Fold change /veh C1QL1 (11718748_at) / RFU TMPRSS4 (11747572_a_at) / Fold change /veh TMPRSS4 (11747572_a_at) / RFU HAMP (11756126_x_at) / Fold change /veh HAMP (11756126_x_at) / RFU RNFT2 (11725882_a_at) / Fold change /veh RNFT2 (11725882_a_at) / RFU NR4A2 (11747474_a_at) / Fold change /veh NR4A2 (11747474_a_at) / RFU ABCC12 (11746883_a_at) / Fold change /veh ABCC12 (11746883_a_at) / RFU TMEM136 (11760407_x_at) / Fold change /veh TMEM136 (11760407_x_at) / RFU CLDN22 /// WWC2 (11732394_at) / Fold change /veh CLDN22 /// WWC2 (11732394_at) / RFU HLA-DPB1 (11760878_x_at) / Fold change /veh HLA-DPB1 (11760878_x_at) / RFU SPINT1 (11716480_a_at) / Fold change /veh SPINT1 (11716480_a_at) / RFU GAP43 (11754022_s_at) / Fold change /veh GAP43 (11754022_s_at) / RFU A4GNT (11735810_at) / Fold change /veh A4GNT (11735810_at) / RFU PRB3 (11715151_x_at) / Fold change /veh PRB3 (11715151_x_at) / RFU TUBB4B (11761932_at) / Fold change /veh TUBB4B (11761932_at) / RFU CAPN14 (11732068_a_at) / Fold change /veh CAPN14 (11732068_a_at) / RFU TMCC2 (11721928_a_at) / Fold change /veh TMCC2 (11721928_a_at) / RFU IRGQ (11745062_a_at) / Fold change /veh IRGQ (11745062_a_at) / RFU FAM174B (11720279_a_at) / Fold change /veh FAM174B (11720279_a_at) / RFU TMPRSS4 (11748680_a_at) / Fold change /veh TMPRSS4 (11748680_a_at) / RFU FAM212B (11763350_a_at) / Fold change /veh FAM212B (11763350_a_at) / RFU PLEKHG5 (11743358_a_at) / Fold change /veh PLEKHG5 (11743358_a_at) / RFU ZSCAN30 (11745921_a_at) / Fold change /veh ZSCAN30 (11745921_a_at) / RFU CMKLR1 (11741424_a_at) / Fold change /veh CMKLR1 (11741424_a_at) / RFU LOC101060620 /// MAPK8IP1 (11723275_at) / Fold change /veh LOC101060620 /// MAPK8IP1 (11723275_at) / RFU SPTSSB (11747773_x_at) / Fold change /veh SPTSSB (11747773_x_at) / RFU PRSS12 (11739890_at) / Fold change /veh PRSS12 (11739890_at) / RFU BIN1 (11741810_x_at) / Fold change /veh BIN1 (11741810_x_at) / RFU WNT11 (11732464_a_at) / Fold change /veh WNT11 (11732464_a_at) / RFU C10orf10 (11716521_a_at) / Fold change /veh C10orf10 (11716521_a_at) / RFU C5orf56 (11738089_at) / Fold change /veh C5orf56 (11738089_at) / RFU CYB561 (11721691_x_at) / Fold change /veh CYB561 (11721691_x_at) / RFU ANKRD19P (11752326_a_at) / Fold change /veh ANKRD19P (11752326_a_at) / RFU OR2T12 /// OR2T33 /// OR2T8 (11738714_s_at) / Fold change /veh OR2T12 /// OR2T33 /// OR2T8 (11738714_s_at) / RFU VCAN (11748164_a_at) / Fold change /veh VCAN (11748164_a_at) / RFU JSRP1 (11732532_at) / Fold change /veh JSRP1 (11732532_at) / RFU KRTAP10-11 (11738290_x_at) / Fold change /veh KRTAP10-11 (11738290_x_at) / RFU MYO3A (11730013_a_at) / Fold change /veh MYO3A (11730013_a_at) / RFU EBF3 (11725865_a_at) / Fold change /veh EBF3 (11725865_a_at) / RFU CAMK2N1 (11719241_x_at) / Fold change /veh CAMK2N1 (11719241_x_at) / RFU C5orf56 (11738088_a_at) / Fold change /veh C5orf56 (11738088_a_at) / RFU OLFML3 (11715873_a_at) / Fold change /veh OLFML3 (11715873_a_at) / RFU LOC100653217 /// NTM (11731650_a_at) / Fold change /veh LOC100653217 /// NTM (11731650_a_at) / RFU MAPK11 (11762145_a_at) / Fold change /veh MAPK11 (11762145_a_at) / RFU FIZ1 (11724087_x_at) / Fold change /veh FIZ1 (11724087_x_at) / RFU OASL (11726364_x_at) / Fold change /veh OASL (11726364_x_at) / RFU SOX15 (11748057_x_at) / Fold change /veh SOX15 (11748057_x_at) / RFU CD79A (11719716_a_at) / Fold change /veh CD79A (11719716_a_at) / RFU HIST1H1D (11736915_at) / Fold change /veh HIST1H1D (11736915_at) / RFU CASKIN2 (11723855_a_at) / Fold change /veh CASKIN2 (11723855_a_at) / RFU LOC730098 (11760151_x_at) / Fold change /veh LOC730098 (11760151_x_at) / RFU OR4N2 (11742367_at) / Fold change /veh OR4N2 (11742367_at) / RFU PRRT2 (11749266_a_at) / Fold change /veh PRRT2 (11749266_a_at) / RFU SNX32 (11753110_a_at) / Fold change /veh SNX32 (11753110_a_at) / RFU CDHR5 (11726645_a_at) / Fold change /veh CDHR5 (11726645_a_at) / RFU RCAN1 (11760418_a_at) / Fold change /veh RCAN1 (11760418_a_at) / RFU FAM167A (11723789_a_at) / Fold change /veh FAM167A (11723789_a_at) / RFU FAM26E (11764081_at) / Fold change /veh FAM26E (11764081_at) / RFU ISYNA1 (11749810_s_at) / Fold change /veh ISYNA1 (11749810_s_at) / RFU ACY1 (11761880_at) / Fold change /veh ACY1 (11761880_at) / RFU 11764098_at / Fold change /veh 11764098_at / RFU SAMD14 (11745864_x_at) / Fold change /veh SAMD14 (11745864_x_at) / RFU NPB (11741838_a_at) / Fold change /veh NPB (11741838_a_at) / RFU TMPRSS6 (11731388_a_at) / Fold change /veh TMPRSS6 (11731388_a_at) / RFU KRTAP10-2 (11738614_at) / Fold change /veh KRTAP10-2 (11738614_at) / RFU ARHGAP8 /// PRR5-ARHGAP8 (11727945_x_at) / Fold change /veh ARHGAP8 /// PRR5-ARHGAP8 (11727945_x_at) / RFU KRTAP5-7 /// NADSYN1 (11734609_at) / Fold change /veh KRTAP5-7 /// NADSYN1 (11734609_at) / RFU RASL12 (11751679_a_at) / Fold change /veh RASL12 (11751679_a_at) / RFU CDKN2B (11736163_a_at) / Fold change /veh CDKN2B (11736163_a_at) / RFU PRF1 (11729649_at) / Fold change /veh PRF1 (11729649_at) / RFU, ZNF638 /// ZNF638-IT1 / Fold change vs veh, ZNF638 /// ZNF638-IT1 / RFU, PANK3 / Fold change vs veh, PANK3 / RFU, SH3YL1 / Fold change vs veh, SH3YL1 / RFU, ZEB2 / Fold change vs veh, ZEB2 / RFU, NRIP1 / Fold change vs veh, NRIP1 / RFU, PTTG1IP / Fold change vs veh, PTTG1IP / RFU, CAPN2 / Fold change vs veh, CAPN2 / RFU, MED14 / Fold change vs veh, MED14 / RFU, SNORA58 / Fold change vs veh, SNORA58 / RFU, C1orf63 / Fold change vs veh, C1orf63 / RFU, LRRFIP1 / Fold change vs veh, LRRFIP1 / RFU, NDUFAF7 / Fold change vs veh, NDUFAF7 / RFU, SLC12A2 / Fold change vs veh, SLC12A2 / RFU, IBTK / Fold change vs veh, IBTK / RFU, ESF1 / Fold change vs veh, ESF1 / Fold change vs veh, TMEM50B / RFU, TAOK1 / Fold change vs veh, TAOK1 / RFU, ACBD3 / Fold change vs veh, ACBD3 / RFU, TMA16 / Fold change vs veh, TMA16 / RFU, RWDD3 / Fold change vs veh, RWDD3 / RFU, BCAT1 / Fold change vs veh, BCAT1 / RFU, EDEM3 / Fold change vs veh, EDEM3 / RFU, TMEM33 / Fold change vs veh, TMEM33 / RFU, WDR75 / Fold change vs veh, WDR75 / RFU, AHCTF1 / Fold change vs veh, AHCTF1 / RFU, TFRC / Fold change vs veh, TFRC / RFU, ZDHHC17 / Fold change vs veh, ZDHHC17 / RFU, NOM1 / Fold change vs veh, NOM1 / RFU, ARL8B / Fold change vs veh, ARL8B / RFU, ZBTB11 / Fold change vs veh, ZBTB11 / RFU, TAMM41 / Fold change vs veh, TAMM41 / RFU, KIAA1704 /// LOC100996395 / Fold change vs veh, KIAA1704 /// LOC100996395 / RFU, ING1 / Fold change vs veh, ING1 / RFU, TRMT61B / Fold change vs veh, TRMT61B / RFU, FUBP3 / Fold change vs veh, FUBP3 / RFU, TP53 / Fold change vs veh, TP53 / RFU, TNKS2 / Fold change vs veh, TNKS2 / RFU, ZFP14 / Fold change vs veh, ZFP14 / RFU, ACTR2 / Fold change vs veh, ACTR2 / RFU, PPP3R1 / Fold change vs veh, PPP3R1 / RFU, PIK3R1 / Fold change vs veh, PIK3R1 / RFU, HNRNPA1 / Fold change vs veh, HNRNPA1 / RFU, RNF170 / Fold change vs veh, RNF170 / RFU, ZNF28 / Fold change vs veh, ZNF28 / RFU, RNGTT / Fold change vs veh, RNGTT / RFU, OGT / Fold change vs veh, OGT / RFU, BRD1 / Fold change vs veh, BRD1 / RFU, MARS / Fold change vs veh, MARS / RFU, ZNF655 / Fold change vs veh, ZNF655 / RFU, FAHD1 / Fold change vs veh, FAHD1 / RFU, BDP1 / Fold change vs veh, BDP1 / RFU, LRRCC1 / Fold change vs veh, LRRCC1 / RFU, ARID1A / Fold change vs veh, ARID1A / RFU, ZNF146 / Fold change vs veh, ZNF146 / RFU, ZNF330 / Fold change vs veh, ZNF330 / RFU, GPN3 / Fold change vs veh, GPN3 / RFU, C9orf123 / Fold change vs veh, C9orf123 / RFU, N4BP2L2 / Fold change vs veh, N4BP2L2 / RFU, ARFIP1 / Fold change vs veh, ARFIP1 / RFU, FAM179B / Fold change vs veh, FAM179B / RFU, BCL10 / Fold change vs veh, BCL10 / RFU, UHRF1BP1L / Fold change vs veh, UHRF1BP1L / RFU, BET1 / Fold change vs veh, BET1 / RFU, CNOT2 / Fold change vs veh, CNOT2 / RFU, ZNF268 / Fold change vs veh, ZNF268 / Fold change vs veh, ZNF507 / RFU, DGCR2 / Fold change vs veh, DGCR2 / RFU, WDSUB1 / Fold change vs veh, WDSUB1 / Fold change vs veh, HSP90B1 /// MIR3652 / RFU, ADSS / Fold change vs veh, ADSS / RFU, GK / Fold change vs veh, GK / RFU, ZNF148 / Fold change vs veh, ZNF148 / RFU, TAF9 / Fold change vs veh, TAF9 / RFU, SLC1A5 / Fold change vs veh, SLC1A5 / RFU, SLMO2 / Fold change vs veh, SLMO2 / RFU, ABCC4 / Fold change vs veh, ABCC4 / RFU, LOC101060439 /// RAP1B / Fold change vs veh, LOC101060439 /// RAP1B / RFU, RFX7 / Fold change vs veh, RFX7 / RFU, GTPBP10 / Fold change vs veh, GTPBP10 / RFU, CNEP1R1 / Fold change vs veh, CNEP1R1 / RFU, BIVM-ERCC5 /// ERCC5 / Fold change vs veh, BIVM-ERCC5 /// ERCC5 / RFU, ILF3 / Fold change vs veh, ILF3 / RFU 11762660_at / Fold change /veh 11762660_at / RFU VCAN (11757783_s_at) / Fold change /veh VCAN (11757783_s_at) / RFU DDX43 (11728927_at) / Fold change /veh DDX43 (11728927_at) / RFU KRT8 (11758188_x_at) / Fold change /veh KRT8 (11758188_x_at) / RFU NKD1 (11759106_at) / Fold change /veh NKD1 (11759106_at) / RFU SRD5A1 (11742802_a_at) / Fold change /veh SRD5A1 (11742802_a_at) / RFU TPSAB1 /// TPSB2 (11721975_s_at) / Fold change /veh TPSAB1 /// TPSB2 (11721975_s_at) / RFU GSTM3 (11746129_a_at) / Fold change /veh GSTM3 (11746129_a_at) / RFU IL23R (11737362_x_at) / Fold change /veh IL23R (11737362_x_at) / RFU TMEM51 (11727254_a_at) / Fold change /veh TMEM51 (11727254_a_at) / RFU PIWIL2 (11732686_x_at) / Fold change /veh PIWIL2 (11732686_x_at) / RFU ORM1 (11744905_x_at) / Fold change /veh ORM1 (11744905_x_at) / RFU CCDC152 (11743942_at) / Fold change /veh CCDC152 (11743942_at) / RFU ECM1 (11717891_a_at) / Fold change /veh ECM1 (11717891_a_at) / RFU IL23R (11748794_a_at) / Fold change /veh IL23R (11748794_a_at) / RFU TNFAIP8L3 (11732012_x_at) / Fold change /veh TNFAIP8L3 (11732012_x_at) / RFU MBOAT4 (11741988_at) / Fold change /veh MBOAT4 (11741988_at) / RFU 11764193_at / Fold change /veh 11764193_at / RFU TMEM53 (11763286_at) / Fold change /veh TMEM53 (11763286_at) / RFU MAGEB2 (11727129_at) / Fold change /veh MAGEB2 (11727129_at) / RFU TMEM200A (11744735_a_at) / Fold change /veh TMEM200A (11744735_a_at) / RFU CCDC152 (11751479_a_at) / Fold change /veh CCDC152 (11751479_a_at) / RFU FAM211A (11726209_a_at) / Fold change /veh FAM211A (11726209_a_at) / RFU RGS16 (11746705_a_at) / Fold change /veh RGS16 (11746705_a_at) / RFU VCAN (11755009_s_at) / Fold change /veh VCAN (11755009_s_at) / RFU RHOB (11743442_s_at) / Fold change /veh RHOB (11743442_s_at) / RFU RGS16 (11720943_a_at) / Fold change /veh RGS16 (11720943_a_at) / RFU RGS16 (11720944_at) / Fold change /veh RGS16 (11720944_at) / RFU, VPS4B / Fold change vs veh, VPS4B / RFU, CREB1 / Fold change vs veh, CREB1 / RFU, DNAJC13 / Fold change vs veh, DNAJC13 / RFU, GNAQ / Fold change vs veh, GNAQ / RFU, CDK5R1 / Fold change vs veh, CDK5R1 / RFU, ZRANB3 / Fold change vs veh, ZRANB3 / RFU, CUL4A / Fold change vs veh, CUL4A / RFU, CCNY / Fold change vs veh, CCNY / RFU, UFL1 / Fold change vs veh, UFL1 / RFU, COG3 / Fold change vs veh, COG3 / RFU, DIAPH2 / Fold change vs veh, DIAPH2 / RFU, SKA2 / Fold change vs veh, SKA2 / RFU, AFF3 / Fold change vs veh, AFF3 / RFU, LMF1 / Fold change vs veh, LMF1 / RFU, IPO11 / Fold change vs veh, IPO11 / RFU, DFFB / Fold change vs veh, DFFB / RFU, FOXP1 / Fold change vs veh, FOXP1 / RFU, CARD8 / Fold change vs veh, CARD8 / RFU, STRN3 / Fold change vs veh, STRN3 / RFU, ADK / Fold change vs veh, ADK / RFU, RASSF2 / Fold change vs veh, RASSF2 / RFU, WIPF1 / Fold change vs veh, WIPF1 / RFU, LARP1B / Fold change vs veh, LARP1B / RFU, RASA1 / Fold change vs veh, RASA1 / RFU, RB1 / Fold change vs veh, RB1 / RFU, PPFIA1 / Fold change vs veh, PPFIA1 / RFU, MAT2A / Fold change vs veh, MAT2A / RFU, CCT5 / Fold change vs veh, CCT5 / RFU, WDR92 / Fold change vs veh, WDR92 / RFU, CUX1 / Fold change vs veh, CUX1 / RFU, TTC7A / Fold change vs veh, TTC7A / RFU, TMEM135 / Fold change vs veh, TMEM135 / RFU, DEPTOR / Fold change vs veh, DEPTOR / RFU, CPM / Fold change vs veh, CPM / RFU, DNAJB6 / Fold change vs veh, DNAJB6 / RFU, CACNA2D3 / Fold change vs veh, CACNA2D3 / RFU, DTX4 / Fold change vs veh, DTX4 / RFU, TFCP2 / Fold change vs veh, TFCP2 / RFU, GMCL1 /// GMCL1P1 / Fold change vs veh, GMCL1 /// GMCL1P1 / RFU, AEBP2 / Fold change vs veh, AEBP2 / RFU, SNHG1 /// SNORD22 /// SNORD25 /// SNORD26 /// SNORD27 /// SNORD28 /// SNORD29 /// SNORD31 / Fold change vs veh, SNHG1 /// SNORD22 /// SNORD25 /// SNORD26 /// SNORD27 /// SNORD28 /// SNORD29 /// SNORD31 / Fold change (Aza/veh), C12orf56 (ProbeSet 11735607_a_at) / Fold change (ACY-1035/veh), C12orf56 (ProbeSet 11735607_a_at) / Fold change (Aza/veh), FGFR1OP (ProbeSet 11751329_s_at) / Fold change (ACY-1035/veh), FGFR1OP (ProbeSet 11751329_s_at) / Fold change (Aza/veh), VPS36 (ProbeSet 11739960_a_at) / Fold change (ACY-1035/veh), VPS36 (ProbeSet 11739960_a_at) / RFU SYPL1 (11715823_x_at) / Fold change /veh SYPL1 (11715823_x_at) / RFU IGFBP7 (11715501_s_at) / Fold change /veh IGFBP7 (11715501_s_at) / RFU REEP3 (11722064_at) / Fold change /veh REEP3 (11722064_at) / RFU IGLL1 (11728026_x_at) / Fold change /veh IGLL1 (11728026_x_at): dose or concentration left out as unconfirmed
Details: ProbeSet 11725100_s_at; LIST B

SMILES: Nc1ccc(-c2cccs2)cc1NC(=O)c1ccc2c(c1)cc(C1CC1)n2CCN1CCOCC1 [ACY-1035]
- RFU, ESF1: 97.73 RFU
